Drawing on ChEMBL document CHEMBL5729275 (2022), this text covers EC50 for 56 compounds.

Molecules are shown by their SMILES. pEC50: −log10 of the molar value.

The assay is described as follows: RSV-A Assay : Hep-2 cells, (originally derived from tumors grown in irradiated-cortisonised weanling rats that had been injected with epidermoid carcinoma tissue from a person's larynx, but later found to be indistinguishable from HeLa cells by PCR DNA analysis), were used for the culturing of genotype A, “Long” strain RSV. Flasks were inoculated with RSV and viral stocks were collected once cytopathic effect (CPE) was greater than 90%. Viral stocks in 25% sucrose media were snap frozen using liquid nitrogen to increase viral stability. Viral stock titers were quantified by tissue culture infectious dose 50% (TCID50) using 8,000 cells per well and 3-fold viral dilutions across a 96-well plate, cultured for 4 days. Viral stock titers were also quantified by a plaque forming unit assay, as described elsewhere.Following extensive parameter testing, the final assay is run as follows: Hep-2 cells are seeded into the inner 60 wells of a 96-well plate at 8,000 cells per well in a volume of 50 μL using Growth Media (DMEM without phenol red, 1% L-Glut, 1% Penn/Strep, 1% nonessential amino acids, 10% heat-inactivated FBS). 2-fold serial dilutions of control and test compounds are added to the wells in duplicate in a total volume of 25 μL. Viral stock is then added to the wells at a multiplicity of infection (MOI) of 0.1 in a volume of 25 μL, bringing the total volume of each well to 100 μL. The MOI is calculated using the PFU/mL, or TCID50 if unavailable. Each 96-well plate has a control column of 6 wells with cells and virus but no compound (negative control, max CPE), a column with cells but no compound or virus (positive control, minimum CPE), and a column with no cells or virus or compound (background plate/reagent control). The control wells with cells but no virus are given an additional […], of growth media containing an equal quantity of sucrose as those wells receiving the viral stock in order to keep consistent in media and volume conditions. The outer wells of the plate are filled with 125 μL of moat media (DMEM, 1% Penn/Strep) to act as a thermal and evaporative moat around the test wells. Following a 5-day incubation period, the plates are read using ATPlite (50 uL added per well), which quantifies the amount of ATP (a measure of cell health) present in each well. Assay plates are read using the Envision luminometer.
In general, pEC50 refers to −log10 of the EC50, conventionally taken in molar units. As for `N[C@@]1(C(F)(F)F)COc2c1cc([C@@](O)(CNC(=O)c1ccc(OC3CC3)c(OC3CC3)c1)C1CC1)nc2-c1ccc(F)c(Cl)c1`, the pEC50 was more than 6.70.
Regarding `CC(C)(C)S(=O)(=O)N[C@@]1(C(F)(F)F)COc2c1cc([C@@](C)(O)CNC(=O)c1cc(OC3CC3)c3ncccc3c1)nc2-c1ccc(F)cc1`, the pEC50 is less than 6.70.
In the case of `COC(=O)N[C@@]1(C(F)(F)F)COc2c1cc([C@@](O)(CNC(=O)c1ccc(OC3CC3)c(OC)c1)C(F)(F)F)nc2-c1ccc(F)cc1`, the pEC50 was less than 6.70.
On to `COc1cc(C(=O)NC[C@](O)(c2cc3c(c(-c4ccc(F)cc4)n2)OC[C@@]3(N)C(F)(F)F)C(F)(F)F)ccc1OCCO`, for which the pEC50 is less than 6.70.
Regarding `C[C@](O)(CNC(=O)c1cc(OC2CC2)c2ncccc2c1)c1cc2c(c(-c3ccc(F)cc3)n1)OC[C@@]2(N)C(F)(F)F`, the pEC50 was more than 6.70.
Consider `COc1cc(C(=O)NC[C@](C)(O)c2cc3c(c(-c4ccc(F)cc4)n2)OC[C@@]3(NC(=N)NC#N)C(F)(F)F)ccc1OC1CC1`, for which the pEC50 was more than 6.70.
Regarding `Cn1cc2cc(C(=O)NC[C@](O)(c3cc4c(c(-c5ccc(F)cc5)n3)OC[C@@]4(N)C(F)(F)F)C3CC3)cc(F)c2n1`, the pEC50 was more than 6.70.
For the compound `COc1cc(C(=O)NC[C@](C)(O)c2cc3c(c(-c4ccc(F)c(F)c4)n2)OC[C@@]3(N)C(F)(F)F)ccc1OC1CC1`, the pEC50 is more than 6.70.
As to `COc1cc(C(=O)NC[C@](O)(c2cc3c(c(-c4ccc(F)cc4)n2)OC[C@@]3(N)C(F)(F)F)C(F)(F)F)ccc1C(F)(F)F`, the negative logarithm of the EC50 (pEC50) is less than 6.70.
To `COc1cc(C(=O)NC[C@@](O)(CF)c2cc3c(c(-c4ccc(F)cc4)n2)OC[C@@]3(N)C(F)(F)F)ccc1OC1CC1` belongs more than 6.70.
Turning to `N[C@@]1(C(F)(F)F)COc2c1cc([C@@](O)(CNC(=O)c1cc(OC3CC3)c3nn(C4CC4)cc3c1)C1CC1)nc2-c1ccc(F)cc1`, the pEC50 is more than 6.70.
As for `COc1cc(C(=O)NC[C@](O)(c2cc3c(c(-c4ccc(F)cc4)n2)OC[C@@]3(NC(=O)COC(C)=O)C(F)(F)F)C(F)(F)F)ccc1OC1CC1`, the pEC50 was more than 6.70.
Regarding `C[C@](O)(CNC(=O)c1cc(OC2CC2)c2ncccc2c1)c1cc2c(c(-c3ccc(F)c(Cl)c3)n1)OC[C@@]2(N)C(F)(F)F`, the negative logarithm of the EC50 (pEC50) was less than 6.70.
To `C[C@](O)(CNC(=O)c1ccc(OC2CC2)c(OC2CC2)c1)c1cc2c(c(-c3ccc(F)c(Cl)c3)n1)OC[C@@]2(N)C(F)(F)F` belongs more than 6.70; to `COc1cc(C(=O)NC[C@](O)(c2cc3c(c(-c4ccc(F)cc4)n2)OC[C@]3(N)C(F)(F)F)C(F)(F)F)cc2cccnc12`, more than 6.70; to `COc1cc(C(=O)NC[C@](O)(c2cc3c(c(-c4ccc(F)cc4)n2)OC[C@@]3(N)C(F)(F)F)C2CC2)cc2sc(N)nc12`, more than 6.70.
Consider `COc1cc(C(=O)NC[C@](O)(c2cc3c(c(-c4ccc(F)cc4)n2)OC[C@@]3(N)C(F)(F)F)C2CC2)cc2cccnc12`, for which the pEC50 was more than 6.70.
In the case of `COCCOc1ccc(C(=O)NC[C@](O)(c2cc3c(c(-c4ccc(F)cc4)n2)OC[C@@]3(N)C(F)(F)F)C(F)(F)F)cc1OC`, the pEC50 is less than 6.70.
For `COc1cc(C(=O)NC[C@](O)(c2cc3c(c(-c4ccc(F)cc4)n2)OC[C@@]3(N)C(F)(F)F)C2COC2)ccc1OC1CC1`, the pEC50 is less than 6.70.
`N[C@@]1(C(F)(F)F)COc2c1cc([C@@](O)(CNC(=O)c1ccc(OC3CC3)c(OC3CC3)c1)C1CC1)nc2-c1ccc(F)cc1`: the negative logarithm of the EC50 (pEC50) was more than 6.70.
To `N[C@@]1(C(F)(F)F)COc2c1cc([C@@](O)(CNC(=O)c1cc(OC3CC3)c3ncccc3c1)C1COC1)nc2-c1ccc(F)cc1` belongs less than 6.70.
Regarding `COc1cnc(C(=O)NC[C@](O)(c2cc3c(c(-c4ccc(F)cc4)n2)OC[C@@]3(N)C(F)(F)F)C(F)(F)F)cc1OC`, the pEC50 was less than 6.70.
Regarding `Nc1nc2ccc(C(=O)NC[C@](O)(c3cc4c(c(-c5ccc(F)cc5)n3)OC[C@@]4(N)C(F)(F)F)C3CC3)cc2s1`, the pEC50 is more than 6.70.
To `COC[C@](O)(CNC(=O)c1cc(OC2CC2)c2ncccc2c1)c1cc2c(c(-c3ccc(F)cc3)n1)OC[C@@]2(N)C(F)(F)F` belongs more than 6.70; to `COc1cc(C(=O)NC[C@](O)(c2cc3c(c(-c4ccc(F)cc4)n2)OC[C@@]3(N)C(F)(F)F)C(F)(F)F)cc2cccnc12`, more than 6.70; to `Cc1ccc2cc(C(=O)NC[C@](O)(c3cc4c(c(-c5ccc(F)cc5)n3)OC[C@@]4(N)C(F)(F)F)C3CC3)cc(OC3CC3)c2n1`, more than 6.70.
With `COc1cc(C(=O)NCC(C)c2cc3c(c(-c4ccc(F)c(F)c4)n2)OC[C@@]3(N)C(F)(F)F)ccc1OC1CC1` (stereo partly specified) the figure was less than 6.70.
Consider `N[C@@]1(C(F)(F)F)COc2c1cc([C@@](O)(CNC(=O)c1cc(OC3CC3)c3ncccc3c1)C1CC1)nc2-c1ccc(F)c(Cl)c1`, for which the pEC50 is more than 6.70.
In the case of `COc1cc(C(=O)NC[C@@](O)(c2cc3c(c(-c4ccc(F)cc4)n2)OC[C@]3(N)C(F)(F)F)C(F)(F)F)ccc1OC1CC1`, the pEC50 was less than 6.70.
`COc1cc(C(=O)NC[C@](O)(c2cc3c(c(-c4ccc(F)cc4)n2)OC[C@@]3(N)C(F)(F)F)C2CC2)cc2cn(C)nc12`: the pEC50 was more than 6.70.
With `C[C@](O)(CNC(=O)c1ccc(OC2CC2)c(-c2cccnc2)c1)c1cc2c(c(-c3ccc(F)cc3)n1)OC[C@@]2(N)C(F)(F)F`, the negative-log EC50 (pEC50) is more than 6.70.
In the case of `N[C@@]1(C(F)(F)F)COc2c1cc([C@@](O)(CNC(=O)c1cc(OC3CC3)c3ncccc3c1)C1CC1)nc2-c1ccc(F)cc1`, the pEC50 was more than 6.70.
Turning to `COc1ccc2nc(C(=O)NC[C@](O)(c3cc4c(c(-c5ccc(F)cc5)n3)OC[C@@]4(N)C(F)(F)F)C(F)(F)F)cc(OC)c2c1`, the pEC50 was less than 6.70.
With `COc1cc(C(=O)NC[C@](C)(O)c2cc3c(c(-c4ccc(F)c(Cl)c4)n2)OC[C@@]3(N)C(F)(F)F)ccc1OC1CC1`, the pEC50 was more than 6.70.
With `Cn1cc2cc(C(=O)NC[C@](O)(c3cc4c(c(-c5ccc(F)cc5)n3)OC[C@@]4(N)C(F)(F)F)C3CC3)cc(OC3CC3)c2n1`, the pEC50 was more than 6.70.
As to `COc1cc(C(=O)NC[C@](O)(c2cc3c(c(-c4ccc(F)cc4)n2)OC[C@@]3(N)C(F)(F)F)C(F)(F)F)cc(F)c1OC1CC1`, the pEC50 was less than 6.70.
As to `COc1cc(C(=O)NC[C@](C)(O)c2cc3c(c(-c4ccc(F)cc4)n2)OC[C@@]3(NS(=O)(=O)C(C)(C)C)C(F)(F)F)cc2cccnc12`, the pEC50 is less than 6.70.
As for `COc1cc(C(=O)NC[C@@](O)(c2cc3c(c(-c4ccc(F)cc4)n2)OC[C@]3(N)C(F)(F)F)C(F)(F)F)ccc1OCCO`, the pEC50 is less than 6.70.
As to `COc1cc(C(=O)NC[C@](O)(c2cc3c(c(-c4ccc(F)cc4)n2)OC[C@]3(N)C(F)(F)F)C(F)(F)F)ccc1OCCO`, the pEC50 is less than 6.70.
Turning to `COc1cc(C(=O)NC[C@](O)(c2cc3c(c(-c4ccc(F)cc4)n2)OC[C@@]3(N)C(F)(F)F)C(C)(C)C)ccc1OC1CC1`, the pEC50 is less than 6.70.
With `COc1cc(C(=O)NC[C@](O)(c2cc3c(c(-c4ccc(F)cc4)n2)OC[C@@]3(N)C(F)(F)F)C(F)(F)F)ccc1OCC(C)C`, the pEC50 is less than 6.70.
To `COc1cc(C(=O)NC[C@](O)(c2cc3c(c(-c4ccc(F)cc4)n2)OC[C@@]3(N)C(F)(F)F)C(F)(F)F)ccc1OC1CC1` belongs more than 6.70; to `COc1cc(C(=O)NC[C@](O)(c2cc3c(c(-c4ccc(F)cc4)n2)OC[C@@]3(N)C(F)(F)F)C(F)(F)F)nc2ccccc12`, less than 6.70.
To `COc1cc(C(=O)NC[C@](O)(c2cc3c(c(-c4ccc(F)c(F)c4)n2)OC[C@@]3(N)C(F)(F)F)C2CC2)ccc1OC1CC1` belongs more than 6.70; to `COc1ccc(C(=O)NC[C@](O)(c2cc3c(c(-c4ccc(F)cc4)n2)OC[C@@]3(N)C(F)(F)F)C(F)(F)F)cc1OC`, less than 6.70.
As to `COC(=O)N[C@@]1(C(F)(F)F)COc2c1cc([C@@](C)(O)CNC(=O)c1ccc(OC3CC3)c(OC)c1)nc2-c1ccc(F)cc1`, the pEC50 is more than 6.70.
Consider `N[C@@]1(C(F)(F)F)COc2c1cc([C@@](O)(CNC(=O)c1cc(OC3CC3)c3nc(Cl)ccc3c1)C1CC1)nc2-c1ccc(F)cc1`, for which the pEC50 was more than 6.70.
With `COc1cc(C(=O)NC[C@](C)(O)c2cc3c(c(-c4ccc(F)cc4)n2)OC[C@@]3(N)C(F)(F)F)ccc1OC1CC1` the figure was more than 6.70.
On to `COc1cc(C(=O)NC[C@@](O)(c2cc3c(c(-c4ccc(F)cc4)n2)OC[C@@]3(N)C(F)(F)F)C(F)(F)F)ccc1OC1CC1`, for which the pEC50 is less than 6.70.
For the compound `N[C@@]1(C(F)(F)F)COc2c1cc([C@@](O)(CNC(=O)c1ccc(OC3CC3)c(OC3CC3)c1)C1CC1)nc2-c1ccc(F)c(F)c1`, the pEC50 is more than 6.70.
For `Nc1nc2c(F)cc(C(=O)NC[C@](O)(c3cc4c(c(-c5ccc(F)cc5)n3)OC[C@@]4(N)C(F)(F)F)C3CC3)cc2s1`, the negative logarithm of the EC50 (pEC50) is more than 6.70.
For the compound `COc1cc(C(=O)NC[C@](O)(c2cc3c(c(-c4ccc(F)cc4)n2)OC[C@]3(N)C(F)(F)F)C(F)(F)F)ccc1OC1CC1`, the pEC50 was more than 6.70.
With `N[C@@]1(C(F)(F)F)COc2c1cc([C@](O)(CO)CNC(=O)c1cc(OC3CC3)c3ncccc3c1)nc2-c1ccc(F)cc1`, the pEC50 is less than 6.70.
On to `COc1cc(C(=O)NC[C@@](O)(CO)c2cc3c(c(-c4ccc(F)cc4)n2)OC[C@@]3(N)C(F)(F)F)ccc1OC1CC1`, for which the pEC50 was more than 6.70.
To `COC[C@](O)(CNC(=O)c1ccc(OC2CC2)c(OC)c1)c1cc2c(c(-c3ccc(F)cc3)n1)OC[C@@]2(N)C(F)(F)F` belongs more than 6.70.
Consider `C[C@](O)(CNC(=O)c1ccc(OC2CC2)c(OC2CC2)c1)c1cc2c(c(-c3ccc(F)cc3)n1)OC[C@@]2(N)C(F)(F)F`, for which the pEC50 was more than 6.70.
